This note sets out measurements from patent US20260152527A1, “NOVEL MELANOCORTIN ANALOGS” (priority 2022, published 2026).

SMILES strings stand for the structures. Positions of bridges follow the written chain, without caps; N, C: chain ends. Non-standard residues stand in square brackets, D forms with d. Residues, ends and D or L forms follow the SMILES beside them. Triazole bridges read from a SMILES are 1,4-linked. *: point of attachment. Benzoyl(3,5-(OH)2) = O=C(c1cc(O)cc(O)c1)*; Lys(N3) = [N-]=[N+]=NCCCC[C@H](N)C(=O)O; dPhe(4-F) = N[C@H](Cc1ccc(F)cc1)C(=O)O; Nle = CCCC[C@H](N)C(=O)O; Pra = C#CC[C@H](N)C(=O)O

For data set [1] the following is noted: rabbit.
Source text: To evaluate the effects of the peptide formulations following topical administration and subconjunctival injection a study in rabbits was undertaken. Animals were acclimated to the study and, upon completion of the acclimation period, each animal was physically examined for determination of suitability for study participation. Animals determined to be in good health were randomized into study groups to achieve averaged mean body weight in each group. (N=24; 3 animals per study group) Animals will be uniquely identified by corresponding cage card number and ear tag.
For topical ocular dosing the designated peptide formulations (35 L) were administered to the eye of each animal using a calibrated pipette. With the animal manually restrained, the upper eyelid of the eye was gently elevated to expose the cornea. Treatment was then be applied to the cornea without contacting the eye with the pipette tip. One topical drop was applied per eye for four days. Tissue collection (aqueous humor) occurred 30 minutes after last dose.
A veterinary ophthalmologist performed complete ocular examinations using a slit lamp biomicroscope and indirect ophthalmoscope to evaluate ocular surface morphology and anterior and posterior segment inflammation on all animals prior to injection to serve as a baseline for enrollment into the study as well as on specific study days. Animals were not tranquilized for the examinations.
At least 1.0 mL of whole blood was drawn from the marginal ear vein or cardiac puncture (terminal bleed only) into K2EDTA tubes for plasma collection. After collection, the tubes were gently mixed by inverting the tubes 5-8 times. Blood samples were stored on wet ice prior to plasma processing. The samples were centrifuged at 4° C. for 10 minutes at 2000 g in a swinging bucket refrigerated centrifuge. Within 20 minutes of the blood collection time, the clear plasma was transferred to prelabelled polypropylene tubes, snap frozen, and stored frozen at approximately −80° C.
Following euthanasia, eyes were enucleated and marked at the 12:00 position. Aqueous humor was removed via a 27 or 30 gauge syringe following a 10-15 second rinse with PBS and blot with Kimwipe, and snap frozen by immersing in liquid nitrogen. The whole globe was then snap frozen in liquid nitrogen and stored at −80° C. to be held for potential dissection. All samples were placed into individual vials and weighed. The plasma and aqueous humor were collected.
The peptides were evaluated for their ocular tolerability and pharmacokinetics following repeated (QID×4 days) topical instillation or a single subconjunctival injection in rabbits. The study examined penetration into the anterior chamber and concentrations in the plasma by measuring at a single time point.
Data set [2] deals with T1, human recombinant MC5R (Homo sapiens, UniProt P33032).
T1 construct: host or cells: CHO-K1/Ga15
T1 sequence (P33032 whole entry): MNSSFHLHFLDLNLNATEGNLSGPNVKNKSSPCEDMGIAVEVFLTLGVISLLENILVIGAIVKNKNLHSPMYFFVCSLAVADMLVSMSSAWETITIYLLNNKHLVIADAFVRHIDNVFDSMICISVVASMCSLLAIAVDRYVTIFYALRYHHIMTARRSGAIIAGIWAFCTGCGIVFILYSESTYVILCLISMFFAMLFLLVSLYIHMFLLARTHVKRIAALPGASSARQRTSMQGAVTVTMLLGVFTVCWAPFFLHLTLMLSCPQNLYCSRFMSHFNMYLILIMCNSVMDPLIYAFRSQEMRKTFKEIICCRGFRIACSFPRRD
The data set can be described thus: Ca2+ signalling functional assay, MC5R stable cell line (CHO-K1/Ga15). The data set is classed as cell-based.
Procedure: The Ca^2+ signalling functional assay was performed on a human recombinant MC5R stable cell line (CHO-K1/Ga15, GenScript). The cells were cultured at 37° C. and 5% C02 with culture medium (90% Ham's F-12K (Kaighn's)+10% FBS+400 μg/mL G418+100 μg/mL Hygromycin B). Cells were washed with PBS and then detached by incubation with 0.05% (w/v) Trypsin EDTA at 37° C. for 2 to 5 mins. Detached cells were suspended in Ham's F-12K (Kaighn's) (containing 10% FBS) and a 50 μL cell suspension is seeded into each well of a 384-well assay plate at a density of 15,000 cells/well. Cells were allowed to settle overnight at 37° C., 5% CO2. […] Then, 100 nL of compounds were transferred to the compound plate by the Echo machine. Thirty microliter assay buffer was added to the compounds plate and then shaken for 20-40 minutes. The plates were placed on the FLIPR and 15 μL of the compound was added to each well, then calcium flux signal was measured.

In data set [3] the test system is corneal edema following Descemetorhexis without Endothethelial Keratoplasty (DWEK) surgery. Type of data set: in vivo. The note with it: rabbit. The method, then:
To evaluate the efficacy of a peptide formulation in reducing corneal edema following Descemetorhexis without Endothethelial Keratoplasty (DWEK) surgery a study in rabbits was undertaken. […] A Table summarizing the parameters regarding the study is provided in FIGS. 5A-5B and a schematic exemplifying the timeline of the study is provided in FIG. 6.
Treatment was administered once (QD) or twice daily (BID) with approximately 6-8 hours between each BID dose for 28 days.
The rabbits were subjected to a surgical procedure prior to administering topical treatment. The animals received buprenorphine (0.01-0.05 mg/kg SC) and were sedated immediately prior to the procedure with ketamine/xylazine cocktail (20-50/4-10 mg/kg IM). Aseptic precautions were taken for the surgical procedure. […] Sterile eyewash was then used to irrigate the ocular surface of the left eye. […] The animal's corneal epithelium was marked with a circular ring (5 mm) to create a template for resection of the host tissue. […] Descemet's membrane was scored peripherally using a reverse Terry-Sinskey hook, and then Descemet's membrane was peeled from the overlying stroma. Descemet's membrane was removed using forceps. Viscoelastic was removed by Irrigation Aspiration (IA) using balanced salt saline (BSS). […]
In addition, tonometry was performed by a veterinary ophthalmologist or a trained technician. Intraocular pressure (IOP) was measured in both eyes of all animals at days 2, 4, 8, 15, 22, and 29. […] Six consecutive measurements were obtained and the average IOP shown on the display was recorded. Three independent measurements were obtained and recorded for each eye.
Pachymetry was also performed by a veterinary ophthalmologist or trained technician on days 2, 4, 8, 15, 22, and 29. Corneal thickness was measured in both eyes using an ultrasonic pachymeter. […]
Optical coherence tomography (OS only) was also measured in the animals. […]

By EC50 is commonly meant the concentration giving half of the maximal effect. A word on the IC50: it is the concentration at which inhibition is half-maximal. In the case of `CCCC[C@H](NC(=O)c1cc(O)cc(O)c1)C(=O)N[C@H]1CCCCn2cc(nn2)C[C@@H](C(N)=O)NC(=O)[C@H](Cc2c[nH]c3ccccc23)NC(=O)[C@H](CCCNC(=N)N)NC(=O)[C@@H](Cc2ccc(F)cc2)NC(=O)[C@H](Cc2c[nH]cn2)NC1=O` [KR-072, HyBA-Nle-[Lys(N3)-His-Dphe(4-F)-Arg-Trp-Pra]-NH2] ({Benzoyl(3,5-(OH)2)}-[Nle][Lys(N3)]H[dPhe(4-F)]RW[Pra]-NH2; triazole 2-7), the “Topical Ocular Permeability (nM ± SEM)” value in data set [1] turned out to be 15.5 ± 2.6 nM. In data set [2], the EC50 amounted to 78 nM. For the same compound, the IC50 in data set [2] (calcium flux functional assay) was 0.078 µM. Further, the “corneal edema by stromal thickness measurements (OCT)” value in data set [3] (DWEK, topical 0.05, 0.1, 0.5 mg/mL QD vs vehicle) is given as “decrease corneal edema”. The “wound healing / rate of wound closure (corneal flat mount analysis)” value in data set [3] (topical 0.1 mg/mL) is given as “enhanced wound healing”. In addition, the “efficacy on corneal stromal thickness by OCT” value in data set [3] (two lowest treatment options 0.05 mg/mL or 0.1 mg/mL) is given as “Statistically significant efficacy”.
